Tests used:
[1] = test system: PSMA-expressing LNCaP cells; assay: Cellular uptake and internalization in LNCaP cells, blocking with 2-PMPA; type: cell-based; details: 2-PMPA 100 µM
Protocol: Cellular uptake experiments were performed according to a previous report with slight modifications. LNCaP cells expressing PSMA were cultured in RPMI 1640 medium containing 10% fetal bovine serum (FBS) and 1% penicillin–streptomycin on 6-well culture plates (containing 5 × 10^5 cells/well) for 24 h in a humidified atmosphere (5% CO2) incubator at 37 °C. After removing the medium and washing with phosphate-buffered saline (PBS) (−) once, a mixed solution of [^125I]5 and [^211At]6, [^125I]5 and [^67Ga]Ga-PSMA-617, and [^125I]5 and [^67Ga]5 in 1.0 mL of medium without FBS was added (3.7 kBq/each tracer/well). The final concentrations of the radioligands for [^125I]5, [^211At]6, and [^67Ga]5 were 45.5 pM, 0.2 pM, and 2.5 pM, respectively. These solutions containing radioligands were diluted in saline containing 0.05% (w/v) bovine serum albumin (BSA) to prevent adsorption to tubes or plates and further diluted with medium to 0.00125% as the final BSA concentration. After incubation for 10, 60, and 120 min, the medium from each well was removed, and the cells were washed twice with ice-cold PBS (−); the surface of the cells was washed twice with ice-cold 0.2 M glycine buffer (pH 3.0). The cells were lysed using a 1 M NaOH aqueous solution. The radioactivity of ^67Ga,^125I and ^211At in the 1 M NaOH aqueous solution was determined and defined as the internalized radioligand fraction using an auto well gamma counter (ARC-8001, Hitachi, Ltd., Tokyo, Japan) according to a previous paper. The radioactivity was determined with an auto well gamma counter and corrected for background radiation and physical decay during counting. A window from 16 to 69 keV was used for counting ^125I, and a window from 70 to 120 keV was used for counting ^211At. Correlation factors to eliminate any crossover of ^125I activity in the ^211At counts were determined by measuring the ^125I standard in each window. More than one week after the experiments, the radioactivity counts of ^125I were measured after the decay of ^211At. The protein amount in cells was quantified using a BCA Protein Assay Kit (Nacalai Tesque, Kyoto, Japan) according to the manufacturer’s protocol. All data were expressed as percent dose per milligram protein (%dose/mg protein). In blocking experiments, a selective inhibitor of the PSMA, (2S)-2-(phosphonomethyl)pentanedioic acid (2-PMPA) (final concentration 100 µM), was added to each well with tracers. After incubation for 10, 60, and 120 min, radioactivity and protein concentration were determined in the same manner as the experiment without the blocking agent.

[2] = Biodistribution after intravenous co-injection of [125I]5 and [211At]6 (Table S2); type: in vivo, normal mice (ddY); details: normal mice
Protocol: [^67Ga]Ga-PSMA-617 (37 kBq) and [^125I]5 (37 kBq) or [^125I]5 (37 kBq) and [^211At]6 (37 kBq) were intravenously co-administered into three or four normal mice at each timepoint (6 weeks male ddY mice, 28–30 g, Japan SLC, Inc., Hamamatsu, Japan). Mice were sacrificed at 10 min, 1 h, 4 h, and 24 h ([^67Ga]Ga-PSMA-617 and [^125I]5) or at 10 min, 1 h, 4 h, 12 h, and 24 h ([^125I]5 and [^211At]6) postinjection of the radiolabeled compounds. Tissues of interest were removed and weighed, and the radioactivity of ^67Ga and ^125I and ^125I and ^211At were determined with an auto well gamma counter (ARC-8001) and corrected for background radiation as described in the Cellular Uptake Experiments Section. To determine the amount and routes of the radioactivity excreted from the body for 24 h after the injection of radiolabeled compounds, mice were housed in metabolic cages (METABOLICA, SUGIYAMA-GEN Co., Ltd., Tokyo, Japan). Data are shown as the percentage of injected dose per gram of tissues (%ID/g) or %ID.

SMILES: O=C([O-])CN1CCN(CC(=O)[O-])CCN(CC(=O)NC(CCCCNC(=O)CCCc2ccc([125I])cc2)C(=O)NCC2CCC(C(=O)NC(Cc3ccc4ccccc4c3)C(=O)NCCCCC(NC(=O)NC(CCC(=O)O)C(=O)O)C(=O)O)CC2)CCN(CC(=O)[O-])CC1.[Ga+3] (stereo not shown) [[^125I]5]
- Effect of excess 2-PMPA on cellular uptake [1]: significantly reduced
- In vivo dehalogenation (radioactivity in stomach and neck) [2]: minimal deiodination or deastatination
- Biodistribution of radioactivity: Blood ([2]; i.v., 10 min after injection): 24.34 (0.27) % injected dose per gram
- Biodistribution of radioactivity: Bone ([2]; i.v., 10 min after injection): 2.42 (0.54) % injected dose per gram
- Biodistribution of radioactivity: Brain ([2]; i.v., 10 min after injection): 0.50 (0.04) % injected dose per gram
- Biodistribution of radioactivity: Heart ([2]; i.v., 10 min after injection): 4.48 (0.24) % injected dose per gram
- Biodistribution of radioactivity: Kidney ([2]; i.v., 10 min after injection): 5.27 (0.62) % injected dose per gram
- Biodistribution of radioactivity: L. Intestine ([2]; i.v., 10 min after injection): 0.84 (0.07) % injected dose per gram
- Biodistribution of radioactivity: Liver ([2]; i.v., 10 min after injection): 3.56 (0.01) % injected dose per gram
- Biodistribution of radioactivity: Lung ([2]; i.v., 10 min after injection): 13.97 (2.31) % injected dose per gram
- Biodistribution of radioactivity: Muscle ([2]; i.v., 10 min after injection): 1.01 (0.09) % injected dose per gram
- Biodistribution of radioactivity: Neck ([2]; i.v., 10 min after injection): 0.06 (0.01) % injected dose
- Biodistribution of radioactivity: Pancreas ([2]; i.v., 10 min after injection): 2.73 (0.25) % injected dose per gram
- Biodistribution of radioactivity: S. Intestine ([2]; i.v., 10 min after injection): 1.63 (0.23) % injected dose per gram
- Biodistribution of radioactivity: Spleen ([2]; i.v., 10 min after injection): 2.78 (0.58) % injected dose per gram
- Biodistribution of radioactivity: Stomach ([2]; i.v., 10 min after injection): 1.12 (0.10) % injected dose
- Biodistribution of radioactivity: Blood ([2]; i.v., 1 h after injection): 15.32 (1.28) % injected dose per gram
- Biodistribution of radioactivity: Bone ([2]; i.v., 1 h after injection): 1.67 (0.13) % injected dose per gram
- Biodistribution of radioactivity: Brain ([2]; i.v., 1 h after injection): 0.33 (0.09) % injected dose per gram
- Biodistribution of radioactivity: Heart ([2]; i.v., 1 h after injection): 4.10 (0.15) % injected dose per gram
- Biodistribution of radioactivity: Kidney ([2]; i.v., 1 h after injection): 4.66 (0.50) % injected dose per gram
- Biodistribution of radioactivity: L. Intestine ([2]; i.v., 1 h after injection): 0.89 (0.15) % injected dose per gram
- Biodistribution of radioactivity: Liver ([2]; i.v., 1 h after injection): 2.32 (0.32) % injected dose per gram
- Biodistribution of radioactivity: Lung ([2]; i.v., 1 h after injection): 8.89 (2.09) % injected dose per gram
- Biodistribution of radioactivity: Muscle ([2]; i.v., 1 h after injection): 1.24 (0.08) % injected dose per gram
- Biodistribution of radioactivity: Neck ([2]; i.v., 1 h after injection): 0.15 (0.04) % injected dose
- Biodistribution of radioactivity: Pancreas ([2]; i.v., 1 h after injection): 1.86 (0.33) % injected dose per gram
- Biodistribution of radioactivity: S. Intestine ([2]; i.v., 1 h after injection): 1.62 (0.30) % injected dose per gram
- Biodistribution of radioactivity: Spleen ([2]; i.v., 1 h after injection): 1.79 (0.34) % injected dose per gram
- Biodistribution of radioactivity: Stomach ([2]; i.v., 1 h after injection): 1.29 (0.50) % injected dose
- Biodistribution of radioactivity: Blood ([2]; i.v., 4 h after injection): 12.08 (0.95) % injected dose per gram
- Biodistribution of radioactivity: Bone ([2]; i.v., 4 h after injection): 1.83 (0.61) % injected dose per gram
- Biodistribution of radioactivity: Brain ([2]; i.v., 4 h after injection): 0.29 (0.04) % injected dose per gram
- Biodistribution of radioactivity: Heart ([2]; i.v., 4 h after injection): 3.88 (0.13) % injected dose per gram
- Biodistribution of radioactivity: Kidney ([2]; i.v., 4 h after injection): 5.20 (0.25) % injected dose per gram
- Biodistribution of radioactivity: L. Intestine ([2]; i.v., 4 h after injection): 1.26 (0.30) % injected dose per gram
- Biodistribution of radioactivity: Liver ([2]; i.v., 4 h after injection): 1.50 (0.16) % injected dose per gram
- Biodistribution of radioactivity: Lung ([2]; i.v., 4 h after injection): 7.01 (1.68) % injected dose per gram
- Biodistribution of radioactivity: Muscle ([2]; i.v., 4 h after injection): 1.20 (0.07) % injected dose per gram
- Biodistribution of radioactivity: Neck ([2]; i.v., 4 h after injection): 0.27 (0.09) % injected dose
- Biodistribution of radioactivity: Pancreas ([2]; i.v., 4 h after injection): 1.57 (0.21) % injected dose per gram
- Biodistribution of radioactivity: S. Intestine ([2]; i.v., 4 h after injection): 1.28 (0.16) % injected dose per gram
- Biodistribution of radioactivity: Spleen ([2]; i.v., 4 h after injection): 1.54 (0.22) % injected dose per gram
- Biodistribution of radioactivity: Stomach ([2]; i.v., 4 h after injection): 0.94 (0.29) % injected dose
- Biodistribution of radioactivity: Blood ([2]; i.v., 12 h after injection): 11.77 (1.29) % injected dose per gram
- Biodistribution of radioactivity: Bone ([2]; i.v., 12 h after injection): 1.88 (0.25) % injected dose per gram
- Biodistribution of radioactivity: Brain ([2]; i.v., 12 h after injection): 0.34 (0.07) % injected dose per gram
- Biodistribution of radioactivity: Heart ([2]; i.v., 12 h after injection): 3.62 (0.39) % injected dose per gram
- Biodistribution of radioactivity: Kidney ([2]; i.v., 12 h after injection): 6.62 (0.34) % injected dose per gram
- Biodistribution of radioactivity: L. Intestine ([2]; i.v., 12 h after injection): 0.87 (0.13) % injected dose per gram
- Biodistribution of radioactivity: Liver ([2]; i.v., 12 h after injection): 1.59 (0.12) % injected dose per gram
- Biodistribution of radioactivity: Lung ([2]; i.v., 12 h after injection): 8.00 (1.24) % injected dose per gram
- Biodistribution of radioactivity: Muscle ([2]; i.v., 12 h after injection): 1.32 (0.07) % injected dose per gram
- Biodistribution of radioactivity: Neck ([2]; i.v., 12 h after injection): 0.12 (0.09) % injected dose
- Biodistribution of radioactivity: Pancreas ([2]; i.v., 12 h after injection): 1.75 (0.45) % injected dose per gram
- Biodistribution of radioactivity: S. Intestine ([2]; i.v., 12 h after injection): 1.08 (0.07) % injected dose per gram
- Biodistribution of radioactivity: Spleen ([2]; i.v., 12 h after injection): 1.75 (0.21) % injected dose per gram
- Biodistribution of radioactivity: Stomach ([2]; i.v., 12 h after injection): 0.68 (0.09) % injected dose
- Biodistribution of radioactivity: Blood ([2]; i.v., 24 h after injection): 8.71 (0.20) % injected dose per gram
- Biodistribution of radioactivity: Bone ([2]; i.v., 24 h after injection): 1.26 (0.12) % injected dose per gram
- Biodistribution of radioactivity: Brain ([2]; i.v., 24 h after injection): 0.22 (0.02) % injected dose per gram
- Biodistribution of radioactivity: Heart ([2]; i.v., 24 h after injection): 2.91 (0.21) % injected dose per gram
- Biodistribution of radioactivity: Kidney ([2]; i.v., 24 h after injection): 5.06 (0.61) % injected dose per gram
- Biodistribution of radioactivity: L. Intestine ([2]; i.v., 24 h after injection): 0.63 (0.09) % injected dose per gram
- Biodistribution of radioactivity: Liver ([2]; i.v., 24 h after injection): 1.29 (0.05) % injected dose per gram
- Biodistribution of radioactivity: Lung ([2]; i.v., 24 h after injection): 5.00 (0.75) % injected dose per gram
- Biodistribution of radioactivity: Muscle ([2]; i.v., 24 h after injection): 1.08 (0.08) % injected dose per gram
- Biodistribution of radioactivity: Neck ([2]; i.v., 24 h after injection): 0.17 (0.05) % injected dose
- Biodistribution of radioactivity: Pancreas ([2]; i.v., 24 h after injection): 1.35 (0.12) % injected dose per gram
- Biodistribution of radioactivity: S. Intestine ([2]; i.v., 24 h after injection): 0.69 (0.04) % injected dose per gram
- Biodistribution of radioactivity: Spleen ([2]; i.v., 24 h after injection): 1.21 (0.27) % injected dose per gram
- Biodistribution of radioactivity: Stomach ([2]; i.v., 24 h after injection): 0.55 (0.02) % injected dose
- Biodistribution of radioactivity: Feces ([2]; i.v., excreted for 24 h after injection (column not printed safely), Table S2): 8.13 (1.09) % injected dose

From article PMC12251549, “Engineering a Radiohybrid PSMA Ligand with an Albumin-Binding Moiety and Pharmacokinetic Modulation via an Albumin-Binding Competitor for Radiotheranostics” (Molecules, 2025)
